Assay results as given in patent US6706709B2, “Indolinone derivatives as protein kinase/phosphatase inhibitors” (Sugen, Inc., priority 2000, dated 2004).
pIC50: −log10 of the molar value.

Key:
[1] = target: GST-Flk1 (UniProt P35918); experiment: GST-FLK-1 bioassay (bio flkGST); type: biochemical
Method: This assay analyzes the tyrosine kinase activity of GST-Flk1 on poly glu tyr peptides.
2. poly glu tyr 4:1, lyophilizate (Sigma Catalog # P0275). Prepare 1 mg/mL poly glu tyr in sterile PBS and store in 1 ml aliquots at −20° C.
3. Preparation of poly glu tyr (pEY) coated assay plates: Coat 2 μg/well of poly glu tyr (pEY) in 100 μL PBS at room temperature for 2 hours or at +4° C. overnight. Cover plates well to prevent evaporation.
4. PBS Buffer: To make 1 liter of a 1× working solution, mix […], 1.15 g NA2HPO4, 0.2 g KCl and 8 g NaCl in approx. 900 mL dH2O. When all reagents have dissolved, adjust the pH to 7.2 with HCl. Bring total volume to 1L with dH2O.
5. PBS-Tw Buffer: To 1L of PBS Buffer, add […] Tween-20. Stir until dissolved.
6. TBB-Blocking Buffer: To make one liter of a 1× working solution, mix 1.21 g TRIS, 8.77 g NaCl, 1 mL TWEEN-20 in approximately 900 mL dH2O. Adjust pH to 7.2 with HCl. Add 10 g BSA, stir to dissolve. Bring total volume to 1 L with dH2O. Filter to remove particulate matter.
7. 1% BSA in PBS: To make a 1× working solution, add 10 g BSA to approx. 990 mL PBS buffer, stir to dissolve. Adjust total volume to 1 L with PBS buffer, filter to remove particulate matter.
9. GST-Flk1cd purified from sf9 recombinant baculovirus transformation.
13. Kinase Dilution Buffer (KDB): Mix 10 mL Hepes (pH 7.5), 1 mL of 5 M NaCl, 40 μL of 100 mM NaVO4 and 0.4 mL of 5% BSA in dH2O with 88.56 mL of dH2O.
14. NUNC-96-well V bottom polypropylene plates Applied Scientific Catalog # AS-72092
15. EDTA: Mix 14.12 g ethylenediaminetetraacetic acid (EDTA) to approx. 70 mL dH2O. Add 10N NaOH until EDTA dissolves. Adjust pH to 8.0. Adjust total volume to 100 mL with dH2O.
16. 1° Antibody Dilution Buffer: Mix 10 mL of 5% BSA in PBS buffer with 89.5 mL TBSTw.
17. Anti-phosphotyrosine monoclonal conjugated to horseradish peroxidase (PY99 HRP, Santa Cruz Biotech).
18. 2,2′-Azino-bis(3-ethylbenzthiazoline-6-sulfonic acid (ABTS, Moss, Cat. No. ABST).
1. Coat Corning 96 well ELISA plates with 2 μg of polyEY peptide in sterile PBS as described in step 3 of Materials and Reagents.
2. Remove unbound liquid from wells by inverting plate. Wash once with TBSTw. Pat the plate on a paper towel to remove excess liquid.
3. Add 100 μL of 1% BSA in PBS to each well. Incubate, with shaking, for 1 hr. at room temperature.
5. Soak wells with 50 mM Hepes pH7.5 (150 μL/well).
6. Dilute test compound with dH2O/4% DMSO to 4 times the desired final assay concentration in 96-well polypropylene plates.
7. Add 25 μL diluted test compound to ELISA plate.
8. Add 25 μL of 40 mM MnCl2 with 4×ATP (2 μM) to all wells.
9. Add 25 μL 0.5 M EDTA to negative control wells.
10. Dilute GST-Flk1 0.005 μg (5 ng)/well in KDB. For 50 ml KDB add 100 μL of 0.050 mg/mL GST-Flk1 enzyme.
11. Add 50 μL of diluted enzyme to each well.
12. Incubate, with shaking, for 15 minutes at room temperature.
13. Stop reaction by adding 50 μL of 250 mM EDTA (pH 8.0).
14. Wash 3× with TBSTw and pat plate on paper towel to remove excess liquid.
15. Add 100 μL per well anti-phosphotyrosine HRP conjugate, 1:5,000 dilution in antibody dilution buffer. Incubate, with shaking for 90 min. at room temperature.
16. Wash as described above in step 14.
17. Add 100 μL of room temperature ABTS solution to each well.
18. Incubate, with shaking, for 10 to 15 minutes. Remove any bubbles.
19. Stop reaction by adding 20 μL of 10% SDS.
20. Read assay on Dynatech MR7000 ELISA reader: test filter at 410 nM; reference filter at 630 nM.

[2] = target: T1, EGF Receptor (Homo sapiens, UniProt P00533); experiment: bio EGF (EGF Receptor ELISA); type: biochemical
T1 construct: expressed in transfected cells; host or cells: NIH 3T3/C7 (mouse fibroblasts engineered to express human EGF-R)
T1 sequence (P00533 25-1210): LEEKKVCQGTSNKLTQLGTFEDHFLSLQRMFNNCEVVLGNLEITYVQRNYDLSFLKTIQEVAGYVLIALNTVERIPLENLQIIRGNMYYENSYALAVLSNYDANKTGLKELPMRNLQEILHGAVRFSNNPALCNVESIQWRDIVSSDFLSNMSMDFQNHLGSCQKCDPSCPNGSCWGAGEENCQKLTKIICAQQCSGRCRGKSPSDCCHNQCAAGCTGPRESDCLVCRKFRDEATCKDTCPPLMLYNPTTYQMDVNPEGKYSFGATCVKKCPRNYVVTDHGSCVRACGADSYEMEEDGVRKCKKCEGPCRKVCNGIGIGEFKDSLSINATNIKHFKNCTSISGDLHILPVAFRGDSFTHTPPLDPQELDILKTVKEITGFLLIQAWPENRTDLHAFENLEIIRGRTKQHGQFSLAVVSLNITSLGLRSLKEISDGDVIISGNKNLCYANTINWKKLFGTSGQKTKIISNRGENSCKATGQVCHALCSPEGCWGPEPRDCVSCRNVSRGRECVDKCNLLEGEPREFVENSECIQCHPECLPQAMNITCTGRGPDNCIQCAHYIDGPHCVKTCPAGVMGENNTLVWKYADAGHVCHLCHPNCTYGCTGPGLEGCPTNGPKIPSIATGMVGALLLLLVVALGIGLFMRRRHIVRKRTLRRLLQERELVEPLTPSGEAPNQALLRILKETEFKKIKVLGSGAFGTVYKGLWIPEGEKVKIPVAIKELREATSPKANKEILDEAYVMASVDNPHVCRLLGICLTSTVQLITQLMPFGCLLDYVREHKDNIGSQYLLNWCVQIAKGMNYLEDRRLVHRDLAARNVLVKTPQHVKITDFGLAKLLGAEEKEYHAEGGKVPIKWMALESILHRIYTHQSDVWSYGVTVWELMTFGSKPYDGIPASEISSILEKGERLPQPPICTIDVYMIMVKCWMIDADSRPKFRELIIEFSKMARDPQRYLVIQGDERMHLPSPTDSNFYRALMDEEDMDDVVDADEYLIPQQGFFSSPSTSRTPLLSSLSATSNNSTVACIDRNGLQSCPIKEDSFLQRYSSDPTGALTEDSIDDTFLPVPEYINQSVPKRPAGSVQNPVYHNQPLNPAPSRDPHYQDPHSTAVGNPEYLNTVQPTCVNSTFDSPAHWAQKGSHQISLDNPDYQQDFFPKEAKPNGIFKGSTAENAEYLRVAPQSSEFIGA
Method: EGF Receptor kinase activity in cells genetically engineered to express human EGF-R was measured as described below:
The following materials and reagents were used:
b. 05-101 (UBI) (a monoclonal antibody recognizing an EGFR extracellular domain).
c. Anti-phosphotyrosine antibody (anti-Ptyr) (polyclonal).
d. Detection antibody: Goat anti-rabbit lgG horse radish peroxidase conjugate, TAGO, Inc., Burlingame, Calif.
Keep solution in dark at 4° C. until used.
The following protocol was used:
1. […] Coated plates are good for up to 10 days when stored at 4° C.
2. On day of use, remove coating buffer and replace with blocking buffer (5% Carnation Instant Non-Fat Dry Milk in PBS). Incubate the plate, shaking, at room temperature (about 23° C. to 25° C.) for 30 minutes. Just prior to use, remove blocking buffer and wash plate 4 times with TBST buffer.
2. Choose dishes having 80-90% confluence for the experiment. Trypsinize cells and stop reaction by adding 10% CS DMEM medium. Suspend cells in DMEM medium (10% CS DMEM medium) and centrifuge once at 1000 rpm at room temperature for 5 minutes.
3. Resuspend cells in seeding medium (DMEM, 0.5% bovine serum), and count the cells using trypan blue. Viability above 90% is acceptable. Seed cells in DMEM medium (0.5% bovine serum) at a density of 10,000 cells per well, 100 μL per well, in a 96 well microtiter plate. Incubate seeded cells in 5% CO2 at 37° C. for about 40 hours.
1. Check seeded cells for contamination using an inverted microscope. Dilute drug stock (10 mg/ml in DMSO) 1:10 in DMEM medium, then transfer 5 μL to a test well for a final drug dilution of 1:200 and a final DMSO concentration of 1%. Control wells receive DMSO alone. Incubate in 5% CO2 at 37° C. for one hour.
2. Prepare EGF ligand: dilute stock EGF in DMEM so that upon transfer of 10 μL dilute EGF (1:12 dilution), 25 nM final concentration is attained.
3. Prepare fresh 10 ml HNTG* sufficient for 100 μL per well wherein HNTG* comprises: HNTG stock (2.0 mL), milli-Q H2O (7.3 mL), EDTA, 100 mM, pH 7.0 (0.5 mL), Na3VO4 0.5 M (0.1 mL) and Na4(P2O7), 0.2 M (0.1 mL).
5. After two hours incubation with drug, add prepared EGF ligand to cells, 10 μL per well, to yield a final concentration of 25 nM. Control wells receive DMEM alone. Incubate, shaking, at room temperature, for 5 minutes.
6. Remove drug, EGF, and DMEM. Wash cells twice with PBS. Transfer HNTG* to cells, 100 μL per well. Place on ice for 5 minutes. Meanwhile, remove blocking buffer from other ELISA plate and wash with TBST as described above.
7. With a pipette tip securely fitted to a micropipettor, scrape cells from plate and homogenize cell material by repeatedly aspirating and dispensing the HNTG* lysis buffer. Transfer lysate to a coated, blocked, and washed ELISA plate. Incubate shaking at room temperature for one hour.
8. Remove lysate and wash 4 times with TBST. Transfer freshly diluted anti-Ptyr antibody to ELISA plate at 100 μL per well. Incubate shaking at room temperature for 30 minutes in the presence of the anti-Ptyr antiserum (1:3000 dilution in TBST).
9. Remove the anti-Ptyr antibody and wash 4 times with TBST. Transfer the freshly diluted TAGO 30 anti-rabbit IgG antibody to the ELISA plate at 100 μL per well. Incubate shaking at room temperature for 30 minutes (anti-rabbit IgG antibody: 1:3000 dilution in TBST).
10. Remove detection antibody and wash 4 times with TBST. Transfer freshly prepared ABTS/H2O2 solution to ELISA plate, 100 μL per well. Incubate at room temperature for 20 minutes. ABTS/H2O2 solution: 1.2 μL 30% H2O2in 10 mL ABTS stock.
11. Stop reaction by adding 50 μL 5N H2SO4 (optional), and determine O.D. at 410 nm.
12. The maximal phosphotyrosine signal is determined by subtracting the value of the negative controls from the positive controls. The percent inhibition of phosphotyrosine content for extract-containing wells is then calculated, after subtraction of the negative controls.

Compound | pIC50 [1] | pIC50 [2]
O=C1Nc2ccc(C(=O)O)cc2C1=Cc1cc2cc(OCCN3CCOCC3)ccc2[nH]1 [IN-030, 3-[5-(2-morpholin-4-yl-ethoxy)-1H-indol-2-ylmethylene]-2-oxo-2,3-dihydro-1H-indole-5-carboxylic acid] | > 8.05 | < 4.70
O=C1Nc2ccc(S(=O)(=O)N3CCc4ccccc4C3)cc2C1=Cc1cc2cc(OCCN3CCCC3)ccc2[nH]1 [IN-051, 5-(3,4-dihydro-1H-isoquinoline-2-sulfonyl)-3-[5-(2-pyrrolidin-1-yl-ethoxy)-1H-indol-2-ylmethylene]-1,3-dihydro-indol-2-one] | 6.43 | 5.45
CCN(CC)CCCc1ccc2[nH]c(C=C3C(=O)Nc4ccccc43)cc2c1 [IN-001, 3-[5-(3-diethylamino-propyl)-1H-indol-2-ylmethylene]-1,3-dihydro-indol-2-one] | 6.07 | < 4.00
NS(=O)(=O)c1ccc2c(c1)C(=Cc1ccc3[nH]ccc3c1)C(=O)N2 [IN-067, 3-(1H-indol-5-ylmethylene)-2-oxo-2,3-dihydro-1H-indole-5-sulfonic acid amide] | 5.40 | < 4.00
O=C1Nc2ccc(S(=O)(=O)N3CCc4ccccc4C3)cc2C1=Cc1cc2cc(OCCN3CCOCC3)ccc2[nH]1 [IN-063, 5-(3,4-dihydro-1H-isoquinoline-2-sulfonyl)-3-[5-(2-morpholin-4-yl-ethoxy)-1H-indol-2-ylmethylene]-1,3-dihydro-indol-2-one] | 4.84 | < 4.70
CNS(=O)(=O)c1ccc2c(c1)C(=Cc1c[nH]c3ccccc13)C(=O)N2 [IN-068, 3-(1H-indol-3-ylmethylene)-2-oxo-2,3-dihydro-1H-indole-5-sulfonic acid methylamide] | < 4.70 | < 4.00
O=C1Nc2cc(-c3cccnc3)ccc2C1=Cc1cc2cc(OCCN3CCOCC3)ccc2[nH]1 [IN-034, 3-[5-(2-morpholin-4-yl-ethoxy)-1H-indol-2-ylmethylene]-6-pyridin-3-yl-1,3-dihydro-indol-2-one] | 4.85 | < 4.70
CNS(=O)(=O)c1ccc2c(c1)C(=Cc1cc3cc(OCCN4CCOCC4)ccc3[nH]1)C(=O)N2 [IN-053, 3-[5-(2-morpholin-4-yl-ethoxy)-1H-indol-2-ylmethylene]-2-oxo-2,3-dihydro-1H-indole-5-sulfonic acid methylamide] | 5.92 | 4.82
NS(=O)(=O)c1ccc2c(c1)C(=Cc1cc3cc(OCCN4CCCC4)ccc3[nH]1)C(=O)N2 [IN-039, 2-oxo-3-[5-(2-pyrrolidin-1-yl-ethoxy)-1H-indol-2-ylmethylene]-2,3-dihydro-1H-indole-5-sulfonic acid amide] | 6.77 | < 4.00
CNS(=O)(=O)c1ccc2c(c1)C(=Cc1cc3cc(OCCN4CCCC4)ccc3[nH]1)C(=O)N2 [IN-041, 2-oxo-3-[5-(2-pyrrolidin-1-yl-ethoxy)-1H-indol-2-ylmethylene]-2,3-dihydro-1H-indole-5-sulfonic acid methylamide] | 6.68 | 5.07
CCN(CC)CCCc1ccc2[nH]c(C=C3C(=O)Nc4ccc(Br)cc43)cc2c1 [IN-002, 5-bromo-3-[5-(3-diethylamino-propyl)-1H-indol-2-ylmethylene]-1,3-dihydro-indol-2-one] | 7.52 | 5.54
CC(C)NS(=O)(=O)c1ccc2c(c1)C(=Cc1cc3cc(OCCN4CCCC4)ccc3[nH]1)C(=O)N2 [IN-043, 2-oxo-3-[5-(2-pyrrolidin-1-yl-ethoxy)-1H-indol-2-ylmethylene]-2,3-dihydro-1H-indole-5-sulfonic acid isopropylamide] | 6.57 | 5.36
O=C1Nc2ccc(S(=O)(=O)N3CCCc4ccccc43)cc2C1=Cc1cc2cc(OCCN3CCCC3)ccc2[nH]1 [IN-050, 5-(3,4-dihydro-2H-quinoline-1-sulfonyl)-3-[5-(2-pyrrolidin-1-yl-ethoxy)-1H-indol-2-ylmethylene]-1,3-dihydro-indol-2-one] | 6.15 | 5.62
CN(C)CCOc1ccc2[nH]c(C=C3C(=O)Nc4ccc(-c5ccccc5)cc43)cc2c1 [IN-005, 3-[5-(2-dimethylamino-ethoxy)-1H-indol-2-ylmethylene]-5-phenyl-1,3-dihydro-indol-2-one] | 6.51 | 4.79
